Laboratory results as given in US20100234310A1, “ESTROGENIC COMPOUNDS AND THEIR METHODS OF USE” (Bionovo, Inc., priority 2009, published 2010).

How the values were obtained:
ER-β = target: T1, ER-β (Homo sapiens, UniProt Q92731); assay: ER-β specific assay: ER-β plasmid co-transfected with TNF-RE-tk-Luc or ERE-tk-Luc; assay type: cell-based
T1 construct: expressed in transfected cells
Description: Purified compounds were analyzed by LC-MS and NMR and data was compared to data acquired from authentic purchased standards.

breast cancer cells = assay: Activity in cancerous cells, in particular breast cancer cells, in vitro; assay type: cell-based

T1 sequence (Q92731 whole entry, species assumed): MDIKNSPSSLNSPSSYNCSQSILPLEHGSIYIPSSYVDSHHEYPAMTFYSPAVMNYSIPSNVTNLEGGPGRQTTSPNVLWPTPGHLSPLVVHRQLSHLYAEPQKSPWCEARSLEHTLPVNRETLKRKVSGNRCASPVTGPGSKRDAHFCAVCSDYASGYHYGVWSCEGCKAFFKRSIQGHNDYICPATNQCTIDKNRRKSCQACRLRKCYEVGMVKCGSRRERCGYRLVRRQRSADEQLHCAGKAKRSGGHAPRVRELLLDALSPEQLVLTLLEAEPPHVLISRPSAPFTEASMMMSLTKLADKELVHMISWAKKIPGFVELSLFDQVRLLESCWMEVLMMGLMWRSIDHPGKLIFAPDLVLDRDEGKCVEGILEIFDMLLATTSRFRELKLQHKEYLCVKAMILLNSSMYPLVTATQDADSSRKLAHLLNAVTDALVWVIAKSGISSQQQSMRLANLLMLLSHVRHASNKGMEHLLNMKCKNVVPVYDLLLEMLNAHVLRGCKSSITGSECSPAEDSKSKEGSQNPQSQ

Row | Structure (SMILES) | estrogenic activity (ER-β-specific) (ER-β) | induction of apoptosis (breast cancer cells) | induction of cell death (breast cancer cells) | induction of mitochondrial superoxide (breast cancer cells) | generation of reactive oxygen species (breast cancer cells) | generation/induction of superoxide (breast cancer cells)
1 | O=C1CC(c2ccc(O)cc2)Oc2cc(O)cc(O)c21 (stereo not shown) [Narigenin] | estrogenic activity |  |  |  |  | 
2 | C[C@@H]1O[C@@H](Oc2c(-c3ccc(O)c(O)c3)oc3cc(O)cc(O)c3c2=O)[C@H](O)[C@H](O)[C@H]1O [Quercetrin] | estrogenic activity |  |  |  |  | 
3 | O=c1c(O[C@@H]2O[C@H](CO)[C@@H](O)[C@H](O)[C@H]2O)c(-c2ccc(O)c(O)c2)oc2cc(O)cc(O)c12 [Quercetin-3-O-β-glucopyranoside] | estrogenic activity |  |  |  |  | 
4 | O=c1cc(-c2ccc(O)cc2)oc2cc(O)cc(O)c12 [Apigenin] |  | active | active | active |  | 
5 | O=c1cc(-c2ccc(O)c(O)c2)oc2cc(O)cc(O)c12 [Luteolin] | estrogenic activity | active | active | active | active | active
6 | O=c1c(O)c(-c2ccc(O)c(O)c2)oc2cc(O)cc(O)c12 [Quercetin] | estrogenic activity |  |  |  |  | 
